The values below come from ChEMBL document CHEMBL1155258, “Computational selection of inhibitors of Abeta aggregation and neuronal toxicity” (Bioorg Med Chem, 2009).

The nature of data set [1]: Inhibition of amyloid beta (1-42) self-aggregation after 24 hrs by sedimentation assay with ELISA. A general note: ELISA stands for enzyme-linked immunosorbent assay.
A short description of data set [2]: Inhibition of amyloid beta (1-42) self-aggregation at 4uM after 24 hrs by sedimentation assay with ELISA.
Data set [3] relates to N2a. Put plainly: Neurotoxicity against mouse N2A cells after 24 hrs by MTS assay. In kind it is toxicity, cell-based. A general note: Tetrazolium dyes change colour on reduction, which living cells bring about.
The nature of data set [4]: Inhibition of amyloid beta (1-42) fibril formation after 24 hrs by thioflavin T fluorescence method.
The test system of data set [5] is N2a. Nature of the data set: Neuroprotective activity against amyloid beta-induced neurotoxicity in mouse N2A cells after 24 hrs by MTS assay. In kind it is functional, cell-based.

Activity calls are given as the source filed them. The calls are words filed in the database; no cut-off is given here.

By IC50 is commonly meant the midpoint of a concentration-inhibition curve. A lower IC50 goes with greater potency in that assay. One may read the inhibition as the share of the control response that was lost under treatment. The compound `O=C(Cc1ccccc1)NC(CSSCC(NC(=O)Cc1ccccc1)C(=O)O)C(=O)O` (centres undefined) yielded an IC50 in data set [1] of 1950 nM. For the same compound, the inhibition in data set [2] is 80%. For the same compound, in data set [3], the Activity result is on record as “Non-toxic”.

Turning to `COC(=O)C[C@](O)(CCC(C)(C)O)C(=O)O[C@@H]1C(OC)=C[C@]23CCCN2CCc2cc4c(cc2[C@H]13)OCO4` [HARRINGTONINE], the result in data set [4] and in data set [5] was inactive. The Activity entry in data set [3] was “Non-toxic”.

For the compound `CNc1ccc(C(=O)NC(CCCCNC(=O)OCc2ccccc2)C(=O)O)cc1` (centres undefined), it took 2750 nM to reach half-maximal inhibition in data set [1] (IC50). Further, in data set [2], the inhibition was determined as 80%. The Activity result in data set [3] is recorded as “Non-toxic”.
